We go through 7 molecules from ChEMBL document CHEMBL1146187, “Synthesis, molecular modeling studies, and selective inhibitory activity against monoamine oxidase of N,N'-bis[2-oxo-2H-benzopyran]-3-carboxamides” (Bioorg Med Chem Lett, 2006).

Test [1] deals with T1, Amine oxidase [flavin-containing] A (Bos taurus, UniProt P21398).
T1 sequence (P21398 whole entry): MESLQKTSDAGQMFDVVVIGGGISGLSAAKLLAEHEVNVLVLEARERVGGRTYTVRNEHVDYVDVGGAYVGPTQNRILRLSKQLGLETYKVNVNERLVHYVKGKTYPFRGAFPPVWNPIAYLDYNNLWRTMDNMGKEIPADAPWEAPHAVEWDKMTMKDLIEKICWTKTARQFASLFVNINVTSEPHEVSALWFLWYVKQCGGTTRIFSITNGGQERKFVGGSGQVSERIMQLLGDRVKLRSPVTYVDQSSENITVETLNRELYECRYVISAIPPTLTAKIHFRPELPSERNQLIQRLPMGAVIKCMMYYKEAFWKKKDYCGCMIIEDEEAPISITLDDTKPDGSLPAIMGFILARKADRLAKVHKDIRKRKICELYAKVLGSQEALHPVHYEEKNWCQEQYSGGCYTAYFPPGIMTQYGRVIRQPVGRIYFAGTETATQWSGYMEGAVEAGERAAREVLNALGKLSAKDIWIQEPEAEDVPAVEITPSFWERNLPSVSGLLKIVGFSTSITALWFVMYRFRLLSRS
Briefly: Inhibition of bovine brain mitochondrial MAOA.

In test [2] the target is T2, Amine oxidase [flavin-containing] B (Bos taurus, UniProt P56560).
T2 sequence (P56560 whole entry): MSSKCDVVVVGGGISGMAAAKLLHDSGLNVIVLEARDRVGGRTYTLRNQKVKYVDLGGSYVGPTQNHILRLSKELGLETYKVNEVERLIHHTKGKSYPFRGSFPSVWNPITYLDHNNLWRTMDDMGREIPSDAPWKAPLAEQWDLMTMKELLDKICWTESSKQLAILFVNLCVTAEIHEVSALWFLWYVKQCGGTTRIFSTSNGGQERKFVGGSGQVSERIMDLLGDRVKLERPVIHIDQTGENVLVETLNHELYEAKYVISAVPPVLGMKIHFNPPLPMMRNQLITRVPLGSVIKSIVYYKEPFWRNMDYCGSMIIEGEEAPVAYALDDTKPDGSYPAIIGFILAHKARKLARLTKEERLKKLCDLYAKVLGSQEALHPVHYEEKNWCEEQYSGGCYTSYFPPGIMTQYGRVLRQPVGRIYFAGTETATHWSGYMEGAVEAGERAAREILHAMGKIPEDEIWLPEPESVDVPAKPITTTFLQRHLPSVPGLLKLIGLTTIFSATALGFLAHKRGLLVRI
Briefly: Inhibition of bovine brain mitochondrial MAOB.

On to `O=C(Nc1ccc(NC(=O)c2cc3ccccc3oc2=O)cc1)c1cc2ccccc2oc1=O`, for which the values for the Ki in test [1] and in test [2] were 2.4 µM and 1.74 µM, respectively.
For `O=C(NCCCCCCNC(=O)c1cc2ccccc2oc1=O)c1cc2ccccc2oc1=O`, in that order: 0.00398 µM and 1.82 µM.
On the same counts, the results for `O=C(Nc1ccccc1NC(=O)c1cc2ccccc2oc1=O)c1cc2ccccc2oc1=O` are 0.0162 µM and 3.02 µM.
On the same counts, the results for `O=C(NCCCCNC(=O)c1cc2ccccc2oc1=O)c1cc2ccccc2oc1=O` are 0.001 µM and 1 µM.
For `COc1ccc2cc(C(=O)NCCCCNC(=O)c3cc4ccc(OC)cc4oc3=O)c(=O)oc2c1`, the Ki was 0.17 µM in test [1] and 1.41 µM in test [2].
As for `O=C(NCCNC(=O)c1cc2ccccc2oc1=O)c1cc2ccccc2oc1=O`, the Ki in test [1] was 0.0331 µM; in test [2] it was 6.31 µM.
For `O=C(N[C@H]1CCCC[C@@H]1NC(=O)c1cc2ccccc2oc1=O)c1cc2ccccc2oc1=O`, in that order: 0.182 µM and 1.41 µM.
